Ends that are not written are not given here.
What was measured:
[1] = tested on: Listeria monocytogenes Scott A; assay: Disk inhibition of growth on BHI agar overlay plates; format: cell-based; settings: 10 μl on disks, overnight 37° C.; nisin below 50 IU/ml; lysozyme up to and including 125 μg/ml; blend 50 IU/ml nisin and 50 μg/ml lysozyme
Method: A culture of Listeria monocytogenes Scott A was grown overnight in Brain Heart Infusion broth (BHI, Difco Laboratories, Inc.). Overlay plates were prepared using 25 ml of BHI agar overlayed with 4 ml BHI agar containing 10 μl of the overnight culture. Sterile antibiotic sensitivity disks were blotted with 10 μl of nisin, lysozyme or nisin/lysozyme blends at various concentrations; placed on the surface of the overlay plates and incubated overnight at 37° C.

[2] = tested on: Listeria monocytogenes, Scott A; assay: Lysis of washed cells at various pH levels (loss of absorbance at 540 nm); format: cell-based; settings: 100 IU/ml nisin alone or 10 μg/ml lysozyme alone; 37°
Method: A culture of Listeria monocytogenes, Scott A, was grown overnight in BHI broth and harvested by centrifugation. The harvested cells were washed with 0.067M Potassium phosphate buffer (pH 6.6) and resuspended in 0.067M potassium phosphate buffer at various pH levels to a final absorbance of about 1.0 at 540 nm as determined in a Bausch & Lomb spectronic 20. Lysis of the bacteria is accompanied by a loss in absorbance at 540 nm. Nisin and lysozyme were added to these solutions to final concentrations of 100 IU/ml nisin and 10 μg/ml lysozyme and the solutions were placed in a 37° water bath whereupon the change in adsorption at 540 nm was monitored.

[3] = tested on: L. monocytogenes; assay: Growth of L. monocytogenes in inoculated raw pork sausage (surface response model); format: cell-based, Listeria monocytogenes; settings: alone, 0-500 IU/gm nisin or 0-500 ppm lysozyme; 3 days at 5° C.
Method: L. monocytogenes can grow at 5° C. and poses a threat to some processed meats. Its control can include reduction in the rate of growth, bacteriostatic effects, and most desirably, bacteriocidal effects.
Raw sausage was inoculated with L. monocytogenes from a BHI overnight culture; various amounts of nisin and/or lysozyme were incorporated into the sausage. The treated sausage was held for either 3 or 21 days at 5° C. whereupon viable L. monocytogenes were enumerated. A surface response model was constructed over a range of 0-500 IU/gm nisin and 0-500 ppm lysozyme. The surface response model from the 3 day data are set out in the following FIG. 3. […] Similar synergies are seen at other levels of nisin and lysozyme.

[4] = tested on: Staphlococcus aureus; assay: Minimal inhibitory concentration in BHI broth; format: cell-based; settings: lysozyme alone, 37° C.
Method: The synergy of nisin and lysozyme is not limited to the control of L. monocytogenes. The minimal inhibitory concentration (MIC) of nisin was lowered by the addition of lysozyme for the control of other gram positive bacteria. For example, a culture of Staphlococcus aureus was grown overnight in BHI broth and subsequently diluted into fresh BHI broth with various concentrations of nisin, lysozyme or a combination of nisin and lysozyme. […] Accordingly, one can use less nisin to provide an equivalent level of control by the addition of a synergistic amount of lysozyme.

[5] = tested on: L. monocytogenes Scott A; assay: Survival of cells in citric acid buffer with subtilin and/or lysozyme; format: cell-based, Listeria monocytogenes; settings: for Surviving Cells After 1 Hour at 25° C.: 10 mM citric acid buffer pH 5.5, untreated 7.5; for Surviving Cells After 1 Hour at 25° C. / log10 reduction: subtilin 100 μ/ml and/or lysozyme 500 ppm; for log10 reduction / effect on the L. monocytogenes cells: 1 hour at 25° C., pH 5.5; for effect on the L. monocytogenes cells: alone, subtilin 100 μ/ml or lysozyme 500 ppm
Method: A culture of L. monocytogenes Scott A was grown overnight in BHI broth and diluted 1:100 in 10 mM citric acid buffer (pH 5.5). This preparation, 100 μl, was added to 900 μl of citric acid buffer containing subtilin, lysozyme or both. The subtilin used in this experiment was prepared by the pure culture fermentation of Bacillus subtillus ATCC 6633 as described by Banerjee and Hansen in J. Biol. Chem. 1988 263 (19): 9508-9514.

[6] = tested on: S. typhimurium (ATCC 14028); assay: Survival of cells in citric acid buffer with nisin and/or lysozyme; format: cell-based, Salmonella typhimurium
Method: A culture of S. typhimurium (ATCC 14028) was grown overnight on nutrient broth, diluted in 10 mM citric acid buffer (pH 3.5) and added to citric acid buffer containing nisin, lysozyme or a combination thereof.

Substance | inhibition of bacterial growth (zone of inhibition around disks) [1] | pH of maximum lysis [2] | control of L. monocytogenes in raw sausage [3] | effect on subsequent growth of the bacteria [4] | Surviving Cells After 1 Hour at 25° C. [5] | log10 reduction [5] | effect on the L. monocytogenes cells [5] | Surviving Cells After 1 Hour at 37° C. ([6]; 10 mM citric acid buffer pH 3.5, nisin 1000 IU/ml and/or lysozyme 500 μg/ml, untreated 7.18) | log10 reduction ([6]; 1 hour at 37° C., pH 3.5, nisin 1000 IU/ml and/or lysozyme 500 μg/ml) | effect against S. typhimurium ([6]; lysozyme 500 μg/ml alone, 1 hour at 37° C., pH 3.5)
lysozyme | nor was inhibition observed | 6.0-6.5 pH | ineffective | did not affect | 7.4 log10 colony forming units/ml | 0.1 log10 | little effect | 7.08 log10 colony forming units/ml | 0.10 log10 | ineffective
subtilin (WKSESLCTPGCVTGALQTCFLQTLTCNCKISK; cysteine pairing not given here; also: lantibiotic thioether and dehydro residues, places not given here; UniProt P10946 25-56, looked up) [lantibiotic prepared by pure culture fermentation of Bacillus subtillus ATCC 6633, reference compound] | – | – | – | – | 7.2 log10 colony forming units/ml | 0.3 log10 | little effect | – | – | –
